Test results published in patent publication US11649430B2 (priority 2018, dated 2023).

Tested on: R. solanacearum
Type: cell-based, Ralstonia solanacearum
Conditions: ΔrmyA mutant strain (more sensitive than WT); 0.4 mM; 24 hours

Structure (SMILES)	R. solanacearum growth (OD)
COC1=C(O)C(=O)C2=C(C1=O)[C@H]1N[C@@H](Cc3c[nH]c4ccccc34)C(=O)N1C(C(=O)N[C@@H](CC(CO)CO)C(=O)O)C2 (some centres unmarked) [Imizoquin B, imizoquin B]	decreases R. solanacearum growth modestly
COC1=C(O)C(=O)C2=C(C1=O)[C@H]1N[C@@H](Cc3c[nH]c4ccccc34)C(=O)N1C(C(=O)N[C@@H](CC(C)CO)C(=O)O)C2 (some centres unmarked) [Imizoquin A, imizoquin A]	decreases R. solanacearum growth modestly
